According to patent publication US11174262B2, “Compounds, compositions and methods” (Denali Therapeutics Inc., priority 2017, dated 2021):

Molecular target: GST-hRIPK1 (8-327) (Homo sapiens (Human), UniProt Q13546)
Test: Fluorescent Polarization Binding (FP Binding) assay, RIPK1
Settings: 10 nM GST-hRIPK1 (8-327), 5 nM fluorescent-labeled ligand, RT, 30 min, mean of minimum two experiments
Method: Fluorescent Polarization Binding (FP Binding) assay (Berger S. B. et al. (2015) Cell Death Discovery, 1: 15009; Maki J. L. et al. (2012) Anal Biochem., 427 (2): 164-174) was performed in polystyrene low volume 384-well black plate, at Room Temperature (RT) in a final volume of 10.1 μL/well using 10 nM of GST-hRIPK1 (8-327) enzyme and 5 nM of fluorescent-labeled ligand (14-(2-{[3-({2-{[4-(cyanomethyl)phenyl]amino}-6-[(5-cyclopropyl-1H-pyrazol-3-yl)amino]-4-pyrimidinyl}amino) propyl]amino}-2-oxoethyl)-16,16,18,18-tetramethyl-6,7,7a,8a,9,10,16,18-octahydrobenzo [2″,3″]indolizino[8″,7″:5′,6′]pyrano [3′,2′:3,4]pyrido[1,2-a]indol-5-ium-2-sulfonate.
Test compounds were serially diluted in DMSO at 100 fold final concentrations in the assay (1% DMSO final). In each well of a 384-well Plate were dispensed 0.1 μL of compound solution (or DMSO for controls) followed by 5 μL of GST-hRIPK1 (8-327) at twice the final concentrations in assay buffer (50 mM HEPES pH 7.5, 10 mM NaCl, 50 mM MgCl2, 0.02% CHAPS, 0.5 mM DTT and 0.01% Pluronic F127). For negative control the enzyme addition was replaced by assay buffer only.
After addition of 5 μL of fluorescent-labeled ligand at twice the final concentrations in assay buffer, the plate was incubated at RT for […]. At the end, the binding was measured as FP value with the Envision (PerkinElmer) plate reader using filter for an excitation λ=531 nm FP and an emission λ=595 nm FP (S & P-pol).
Test compound inhibition was expressed as percent inhibition of internal assay controls. For concentration response curves, normalized data is fit and IC50 determined using XL-fit (IDBS) for Excel. IC50 were averaged to determine a mean value, for a minimum of two independent experiments.
Receptor interacting protein kinase 1 activity of exemplary compounds was determined according to the above general procedures.

Sequence of GST-hRIPK1 (8-327) (Q13546 8-327): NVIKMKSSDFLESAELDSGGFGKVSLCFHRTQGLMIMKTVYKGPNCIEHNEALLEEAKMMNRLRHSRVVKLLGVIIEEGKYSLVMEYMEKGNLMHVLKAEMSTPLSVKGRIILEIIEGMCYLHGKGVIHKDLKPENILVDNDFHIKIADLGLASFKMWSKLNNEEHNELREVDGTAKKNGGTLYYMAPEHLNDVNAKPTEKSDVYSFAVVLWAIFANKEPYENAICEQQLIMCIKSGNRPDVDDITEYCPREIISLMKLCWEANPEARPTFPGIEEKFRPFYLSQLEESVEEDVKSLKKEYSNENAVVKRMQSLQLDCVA

| SMILES | IC50 |
| --- | --- |
| CC1(C(F)F)CCCN2CCC(c3cncc(F)c3)N2C1=O (racemic) [Example 11, 6-(difluoromethyl)-3-(5-fluoro-3-pyridyl)-6-methyl-1,2,3,7,8,9-hexahydropyrazolo[1,2-a]diazepin-5-one] | < 1000 nM |
| O=C1N2C(c3cncc(F)c3)CCN2CCCC12CC2 (racemic) [Example 16, 3-(5-fluoro-3-pyridyl)spiro[1,2,3,7,8,9-hexahydropyrazolo[1,2-a]diazepine-6,1′-cyclopropane]-5-one] | 1000 to 30000 nM |
| CCC1(C(F)F)CCCN2CCC(c3cnc(C)cn3)N2C1=O (racemic) [Example 18, 6-(difluoromethyl)-6-ethyl-3-(5-methylpyrazin-2-yl)-1,2,3,7,8,9-hexahydropyrazolo[1,2-a]diazepin-5-one] | < 1000 nM |
| Cc1cnc(C2CCN3CCCC(C)(C)C(=O)N23)cn1 (single isomer, unassigned) [Example 2, 6,6-dimethyl-3-(5-methylpyrazin-2-yl)-1,2,3,7,8,9-hexahydropyrazolo[1,2-a]diazepin-5-one] | < 1000 nM |
| CC1(C)CCCN2CCC(c3cc(F)cc(F)c3)N2C1=O (single isomer, unassigned) [Example 3, 3-(3,5-difluorophenyl)-6,6-dimethyl-1,2,3,7,8,9-hexahydropyrazolo[1,2-a]diazepin-5-one] | < 1000 nM |
| CC1(C(F)F)CCCN2CCC(c3cncc(F)c3)N2C1=O (single isomer, unassigned) [Example 10, 6-(difluoromethyl)-3-(5-fluoro-3-pyridyl)-6-methyl-1,2,3,7,8,9-hexahydropyrazolo[1,2-a]diazepin-5-one] | < 1000 nM |
| Cc1cnc(C2CCN3CCCC(C)(C(F)F)C(=O)N23)cn1 (single isomer, unassigned) [Example 12, 6-(difluoromethyl)-6-methyl-3-(5-methylpyrazin-2-yl)-1,2,3,7,8,9-hexahydropyrazolo[1,2-a]diazepin-5-one] | < 1000 nM |
| Cc1cnc(C2CCN3CCCC(C)(C(F)F)C(=O)N23)cn1 (single isomer, unassigned) [Example 13, 6-(difluoromethyl)-6-methyl-3-(5-methylpyrazin-2-yl)-1,2,3,7,8,9-hexahydropyrazolo[1,2-a]diazepin-5-one] | < 1000 nM |
| CCC1(C(F)F)CCCN2CCC(c3cnc(C)cn3)N2C1=O (single isomer, unassigned) [Example 17, 6-(difluoromethyl)-6-ethyl-3-(5-methylpyrazin-2-yl)-1,2,3,7,8,9-hexahydropyrazolo[1,2-a]diazepin-5-one] | < 1000 nM |
| CCC1(C)COC[C@H]2CC[C@@H](c3cccc(F)c3)N2C1=O (stereo partly drawn) [Example 8, (7S,9aR)-4-ethyl-7-(3-fluorophenyl)-4-methyl-1,3,7,8,9,9a-hexahydropyrrolo[2,1-c][1,4]oxazepin-5-one] | 1000 to 30000 nM |

Continued, values first:

| IC50 | SMILES |
| --- | --- |
| < 1000 nM | CC1(C)CCCN2CCC(c3cncc(F)c3)N2C1=O (racemic) [Example 1, 3-(5-fluoro-3-pyridyl)-6,6-dimethyl-1,2,3,7,8,9-hexahydropyrazolo[1,2-a]diazepin-5-one] |
| < 1000 nM | CC1(C)CCCN2CCC(c3cncc(C#N)c3)N2C1=O (racemic) [Example 9, 5-(6,6-dimethyl-5-oxo-1,2,3,7,8,9-hexahydropyrazolo[1,2-a]diazepin-3-yl)pyridine-3-carbonitrile] |
| < 1000 nM | CC1(C)CCCN2CCC(c3ccc(F)c(F)c3)N2C1=O (single isomer, unassigned) [Example 4, 3-(3,4-difluorophenyl)-6,6-dimethyl-1,2,3,7,8,9-hexahydropyrazolo[1,2-a]diazepin-5-one] |
| < 1000 nM | CC1(C)CCCN2CCC(c3cccc(F)c3)N2C1=O (single isomer, unassigned) [Example 5, 3-(3-fluorophenyl)-6,6-dimethyl-1,2,3,7,8,9-hexahydropyrazolo[1,2-a]diazepin-5-one] |
| < 1000 nM | CC1(C(F)F)CCCN2CCC(c3cncc(C#N)c3)N2C1=O (single isomer, unassigned) [Example 14, 5-[6-(difluoromethyl)-6-methyl-5-oxo-1,2,3,7,8,9-hexahydropyrazolo[1,2-a]diazepin-3-yl]pyridine-3-carbonitrile] |
| < 1000 nM | CC1(C(F)F)CCCN2CCC(c3cncc(C#N)c3)N2C1=O (single isomer, unassigned) [Example 15, 5-[6-(difluoromethyl)-6-methyl-5-oxo-1,2,3,7,8,9-hexahydropyrazolo[1,2-a]diazepin-3-yl]pyridine-3-carbonitrile] |
| < 1000 nM | CC1(C)CCCN2CCC(c3cc(F)cc(C#N)c3)N2C1=O (stereo not drawn) [Example 6, 3-(6,6-dimethyl-5-oxo-1,2,3,7,8,9-hexahydropyrazolo[1,2-a]diazepin-3-yl)-5-fluoro-benzonitrile] |
| < 1000 nM | CC1(C)CCCN2CCC(c3ccc(C#N)cc3)N2C1=O (stereo not drawn) [Example 7, 4-(6,6-dimethyl-5-oxo-1,2,3,7,8,9-hexahydropyrazolo[1,2-a]diazepin-3-yl)benzonitrile] |
